Laboratory results taken from patent US11214556B1, “Method of treating colorectal cancer” (King Abdulaziz University, priority 2019, dated 2022).
“Also recorded” adds a separate entry of the source.

What was measured:
HCT-116 cells [1] = assay: SRB cytotoxicity assay, HCT-116; format: cell-based, human; conditions: for IC50: Homo sapiens, HCT-116, SRB assay, 72 h exposure, ± SEM
Experimental: Compounds in this study were tested against colorectal cancer cell line HCT-116, using sulforhodamine-B (SRB) assay. See Skehan, P.; Storeng, R.; Scudiero, D.; Monks, A.; McMahon, J.; Vistica, D.; Warren, J. T.; Bokesch, H.; Kenney, S.; Boyd, M. R., New colorimetric cytotoxicity assay for anticancer-drug screening. J Natl Cancer Inst 1990, 82 (13), 1107-12, incorporated herein by reference in its entirety. […] However, it was clear that compounds bearing hydrophobic aliphatic groups such as MOS-1505 and MOS-1512 are clearly favored in providing anticancer activities. […] The N-aryl substituents were less advantageous in both potency and solubility.
(§1) Different cell lines were originally purchased from American type culture collection (ATCC, Wesel, Germany) and grown in the tissue culture lab of the Egyptian company for production of vaccines, sera and drugs (Vacsera, Giza, Egypt). The cells were transferred to our laboratory and maintained in the appropriate media as following. HCT-116, CACO-2, and HT-29 (human colon cancer cell lines) were maintained in Roswell Park Memorial Institute medium (RPMI1640) (Invitrogen, Carlsbad, Calif.). The mouse skin fibroblasts (C-166) and Baby Hamster Kidney fibroblasts (BHK) were grown in Dulbecco Modified Eagle's medium (DMEM). Both media were supplemented with 1% of […] of streptomycin, 100 units/mL of penicillin and 10% of heat-inactivated fetal bovine serum (Invitrogen, Carlsbad, Calif.) in a humidified, 5% (v/v) CO2 atmosphere at 37° C.
(§2) The sulforhodamine B (SRB) assays were performed according to Skehan, P.; Storeng, R.; Scudiero, D.; Monks, A.; McMahon, J.; Vistica, D.; Warren, J. T.; Bokesch, H.; Kenney, S.; Boyd, M. R., New colorimetric cytotoxicity assay for anticancer-drug screening. J Natl Cancer Inst 1990, 82 (13), 1107-12, incorporated herein by reference in its entirety. Briefly, exponentially growing cells were trypsinized, counted and seeded at the appropriate densities (5000 cells/100 μL/well) into 96-well microtiter plates. Cells were incubated in a humidified atmosphere at 37° C. for 24 h. Then, the cells were exposed to different compounds at the desired concentrations, (0.01, 0.1, 1, 10, and 100 μM) or to 1% dimethyl sulfoxide (DMSO) for 72 h. At the end of the treatment period, the media were removed, and the cells were fixed with 10% trichloroacetic acid at 4° C. for 1 hr. Following, the cells were washed with tap water four times and incubated with SRB 0.4% for 30 min. Excess dye was removed by washing repeatedly with 1% (vol/vol) acetic acid. The protein-bound dye was dissolved in 10 mM Tris base solution for (optical density) OD determination at 510 nm using a SpectraMax plus Microplate Reader (Molecular Devices, CA). Cell viability was expressed relative to the untreated control cells.

CACO-2 cells = assay: SRB cytotoxicity assay, CACO-2; format: cell-based, human; conditions: Homo sapiens, Caco-2, 72 h exposure, ± SEM
Description: (§3) Based on the favorable pharmacologic and physicochemical properties of MOS-1512, it was selected as a new lead for the second subset of compounds (MOS-1812 to MOS-5112). The compounds in this series contained variable groups at R^1 and R^2 that were all tested against the three cancer cell lines (HCT-116, Caco-2 and HT-29).
as §1, §2

HT-29 cells = assay: SRB cytotoxicity assay, HT-29; format: cell-based, human; conditions: Homo sapiens, HT-29, monolayer, 72 h exposure, ± SEM
Description: as §3, §1, §2

[2] = system: C-166 mouse skin fibroblasts; assay: Selectivity versus normal C-166 fibroblasts; format: cell-based; conditions: HCT-116, Caco-2 and HT-29 versus C-166
Description: FIG. 3A is a graph illustrating the dose-response curve of compound 1512 on HCT-116 cell lines and C-166 cell line;
See El-Araby, M. E.; Omar, A. M.; Khayat, M. T.; Assiri, H. A.; Al-Abd, A. M., Molecular Mimics of Classic P-Glycoprotein Inhibitors as Multidrug Resistance Suppressors and Their Synergistic Effect on Paclitaxel. PLoS One 2017, 12 (1), e0168938, incorporated herein by reference in its entirety.
Different cell lines were originally purchased from American type culture collection (ATCC, Wesel, Germany) and grown in the tissue culture lab of the Egyptian company for production of vaccines, sera and drugs (Vacsera, Giza, Egypt). The cells were transferred to our laboratory and maintained in the appropriate media as following. […]
The sulforhodamine B (SRB) assays were performed according to Skehan, P.; Storeng, R.; Scudiero, D.; Monks, A.; McMahon, J.; Vistica, D.; Warren, J. T.; Bokesch, H.; Kenney, S.; Boyd, M. R., New colorimetric cytotoxicity assay for anticancer-drug screening. […] Briefly, exponentially growing cells were trypsinized, counted and seeded at the appropriate densities (5000 cells/100 μL/well) into 96-well microtiter plates. […] The protein-bound dye was dissolved in 10 mM Tris base solution for (optical density) OD determination at 510 nm using a SpectraMax plus Microplate Reader (Molecular Devices, CA). […]

Solubility profile = format: physicochemical; conditions: stated in words together with C log P
HCT-116 cells [3] = assay: Nuclear fragmentation by DAPI staining; format: cell-based, human; conditions: 32 μM (IC50 concentration), 48 hours
Experimental: Several assays were performed to determine the apoptotic effect of the early lead MOS-1512 as well as the potent derivative MOS-4112 on HCT-116 cells. […] See Drutovic, D.; Chripkova, M.; Pilatova, M.; Kruzliak, P.; Perjesi, P.; Sarissky, M.; Lupi, M.; Damia, G.; Broggini, M.; Mojzis, J., Benzylidenetetralones, cyclic chalcone analogues, induce cell cycle arrest and apoptosis in HCT116 colorectal cancer cells. Tumour Biol 2014, 35 (10), 9967-75, incorporated herein by reference in its entirety.
Cells were cultured on sterile 22 mm^2 cover slips (Harvard Apparatus, MA, USA) in sterile six well plates at a density of 2×10^5 cells/well. […] The fixed and permeabilized cells nuclei were denatured with 2 N HCl (300 μl) for 10 min, washed three times more, and treated with 0.1 μg/ml 4′,6′-diamidino-2-phenylindole, dihydrochloride (DAPI) (Sigma-Aldrich, St. Louis, Mo., USA) (1:1000) in (phosphate-buffered saline-Tween 20 (PBST) for 1 hr. After staining, the cells were washed twice with PBS. The cover slips were then mounted on a glass slide with anti-fade mounting medium and viewed with an epifluorescence microscope, Leica, DM 5500 B (Leica, Buffalo Grove, Ill., USA) at a magnification of 60×, and data were captured digitally and quantified using the microscope provided software.

[4] = Acute oral toxicity (LD50), OECD guideline 423; format: in vivo; conditions: both sexes, Swiss albino, mouse, in vivo, po
Description: (§4) Since compounds with electrophilic properties, e.g., MA are usually involved in a variety of toxic effects on mammalians, the general acute toxicity of 1512, 3712 and 4112 was investigated by determining the in vivo lethal dose (LD50) according to the Globally Harmonized Classification System (GHS) and following the Organization for Economic Cooperation and Development (OECD) guideline 423 (modified, adopted Mar. 23, 2006). As observed in the cellular assay, the compound safety was confirmed, as the LD50 for all compounds were between 2000-5000 mg/kg (Category 5). See Spielmann, H.; Genschow, E.; Liebsch, M.; Halle, W., Determination of the starting dose for acute oral toxicity (LD50) testing in the up and down procedure (UDP) from cytotoxicity data. ATLA 1999, 27 (6), 957-966, incorporated herein by reference in its entirety.
(§5) The experiment was conducted on 12 healthy Swiss albino mice (males and females) weighing 22-27 g and aged 8 to 10 weeks obtained from the Animal Station, Pharmacology Dept, Faculty of Pharmacy, King Abdulaziz University, Jeddah. See Shoieb, S. M.; Esmat, A.; Khalifa, A. E.; Abdel-Naim, A. B., Chrysin attenuates testosterone-induced benign prostate hyperplasia in rats. Food and Chemical Toxicology 2018, 111, 650-659, incorporated herein by reference in its entirety. All animals were kept at the regulated temperature (average 23° C.), air quality (Central air conditioning) and light (12-h light/dark cycles). Animals were provided free access to food pellets ad libitum and water. The experimental procedure was approved by the Research Ethics Committee, Faculty of Pharmacy, King Abdulaziz University prior to starting the laboratory work. Animals were humanely treated according to international and scientific principles. Changes other than vitality of the animals such as behavioral and food consumption habits were not observed in this study.
(§6) The compounds 1512, 3712 and 4112 of purity 95% or more (LC/MS) were prepared for this study as 10% suspension in water containing 0.5% tween 80.
(§7) The animals were distributed randomly into four groups (3 mice at each group). […] The second group received an oral dose of 2000 mg/Kg of the drug and observed after 24 h to count the deceased animals. According to the Guideline 423, when all animals were found alive, the same test was repeated (dose 2000 mg/kg) were given to the third group (3 animals) and observed for 24 h. All animals survived and therefore, a dose of 5000 mg/kg were administered to the fourth and final group.

Swiss albino mice = assay: Acute oral toxicity (LD50), OECD guideline 423; format: in vivo; conditions: both, Swiss albino, mouse, in vivo, po, 24 h
Description: as §4, §5, §6, §7

[5] = system: CRC cell lines (HCT-116, Caco-2 and HT-29); assay: Cytotoxic activities against CRC cell lines (statement over three lines); format: cell-based; conditions: Homo sapiens
Description: as §3, §1, §2

[6] = system: HT-29 colon cancer cell spheroids (cancer stem cells); assay: Primary (1°) colonosphere formation assay; format: cell-based, human
Experimental: Compound 4112 and another potent compound 3712 were also evaluated for their ability to inhibit cancer stem cell proliferation using a primary (1°) colonosphere formation assay. In this assay, HT-29 colon cancer cells were grown in low adhesion plates to form spheres as previously described. See Patel, N. J.; Karuturi, R.; Al-Horani, R. A.; Baranwal, S.; Patel, J.; Desai, U. R.; Patel, B. B., Synthetic, non-saccharide, glycosaminoglycan mimetics selectively target colon cancer stem cells. ACS Chem Biol 2014, 9 (8), 1826-33, incorporated herein by reference in its entirety. Wells treated with the inventive compounds were compared to vehicle treated cells for primary sphere growth inhibition after 5 days of incubation. […] Of note, monolayer growth conditions are ideally suited for examining cellular proliferation, whereas spheroid growth conditions examine cancer stem cell growth and self-renewal properties.
For primary sphere formation, cells were plated in nontreated, low adhesion, 96 wells plate at the concentration of 100 cells/100 μL/well in stem cell media (SCM) that consisted of DMEM:F12:AA (Gibco), supplemented with 1×B27 (Gibco), 20 ng/mL epidermal growth factor, and 10 ng/mL fibroblast growth factor (Sigma). After 4 h of incubation, vehicle (control) or 3712 and 4112 at the desired concentrations were added to each well (at least in triplicates for each sample). On day five, numbers of spheres ranging from […] in diameter were counted using phase contrast microscope and percent inhibition was calculated compared to control.

SMILES | IC50 (HCT-116 cells [1]) [µM] | cancer cell resistance (R-value) (HCT-116 cells [1]; dose-response curve, FIG. 3A) [%] | IC50 (CACO-2 cells) [µM] | IC50 (HT-29 cells) [µM] | selectivity in killing cancer cells versus normal cells [2] | solubility (Solubility profile) | nuclear structure/morphology, DAPI staining (HCT-116 cells [3]) | LD50 at 24 h [4] [mg/kg] | GHS acute toxicity category (Swiss albino mice) | IC50 [5] [µM] | IC50 ([6]; Homo sapiens, 120 h, HT-29 spheres, 5 days of incubation) [µM] | inhibition of colon cancer spheroids formation ([6]; spheroids >50 μm, 5 days)
CCCNC(=O)/C(=C/c1ccccc1)NC(=O)/C=C/c1ccccc1 [Compound 1512, (Z)-2-[(E)-cinnamamido]-3-phenyl-N-propylacrylamide] | 32 ± 2.6 | 8.2 | 38 ± 0.87 | 35.5 ± 1.7 | high selectivity | better solubility profile | very strong blue fluorescence; also recorded: nuclear condensation and fragmentation | 2000 to 5000 | Category 5 |  |  | 
CCCNC(=O)/C(=C/c1c[nH]c2ccccc12)NC(=O)C=Cc1ccccc1 [Compound 3712, (Z)-2-cinnamamido-3-(1H-indol-3-yl)-N-propylacrylamide] | 1.65 ± 0.05 |  | 2.1 ± 0.03 | 2.36 ± 0.04 |  |  |  | 2000 to 5000 | Category 5 | < 5 | 21.1 ± 1.3 | dose-dependent inhibition
